The test system of this test is P388 leukemia ip, CD2F1 mice, survival T/C. Briefly: NCI In Vivo Anticancer Drug Screen. Data for tumor model P388 Leukemia (intraperitoneal) in CD2F1 (CDF1) mice. To be noted: endpoint: median survival time, higher = longer survival. In outline: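 Mice carrying the transplanted tumor received test compound or vehicle. Survival was recorded in each group, and the value is the treated-group measurement divided by that of the vehicle-treated control group.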

Setting [1] is: dose: 50.0 mg/kg/injection, schedule: Q01DX005 (ip), vehicle: saline with Tween-80.
Where [2] appears, read: dose: 100.0 mg/kg/injection, schedule: Q01DX005 (ip), vehicle: saline with Tween-80.
Setting [3] is: dose: 200.0 mg/kg/injection, schedule: Q01DX005 (ip), vehicle: saline with Tween-80.
The mark [4] stands for this setting: dose: 50.0 mg/kg/injection, schedule: Q01DX005 (ip), vehicle: Klucel (hydroxypropylcellulose) (HPC).
The mark [5] stands for this setting: dose: 100.0 mg/kg/injection, schedule: Q01DX005 (ip), vehicle: Klucel (hydroxypropylcellulose) (HPC).
Where [6] appears, read: dose: 50.0 mg/kg/injection, schedule: Q01DX009 (ip), vehicle: saline.
Setting [7] is: dose: 100.0 mg/kg/injection, schedule: Q01DX009 (ip), vehicle: saline.
[8] abbreviates: dose: 200.0 mg/kg/injection, schedule: Q01DX009 (ip), vehicle: saline.
Where [9] appears, read: dose: 50.0 mg/kg/injection, schedule: Q01DX009 (ip), vehicle: saline with Tween-80.
The mark [10] stands for this setting: dose: 100.0 mg/kg/injection, schedule: Q01DX009 (ip), vehicle: saline with Tween-80.
[11] abbreviates: dose: 200.0 mg/kg/injection, schedule: Q01DX009 (ip), vehicle: saline with Tween-80.

This note sets out measurements from PubChem BioAssay AID330 (DTP/NCI, 2004).

Several values for one entry are separate records, joined by “and”; a condition that tells them apart may be missing. Equal values may be shown once. Inconclusive results and toxic doses are left out. Peptide text beside a SMILES is read from it. * marks the point of attachment. Trt = c1ccc(C(c2ccccc2)(c2ccccc2)*)cc1; Cbz = O=C(OCc1ccccc1)*; OtBu = CC(C)(C)O*

Take `CC(C)CC(NC(=O)C(CSC(c1ccccc1)(c1ccccc1)c1ccccc1)NC(=O)OCc1ccccc1)C(=O)NC(C(=O)OC(C)(C)C)C(C)C` (stereo not drawn) (Cbz-Cys(Trt)-Leu-Val-OtBu; configuration not given here): the T/C was 96 % of control (dose: 60.0 mg/kg/injection, schedule: Q01DX005 (ip), vehicle: Klucel (hydroxypropylcellulose) (HPC)); 100 % of control (dose: 120.0 mg/kg/injection, schedule: Q01DX005 (ip), vehicle: Klucel (hydroxypropylcellulose) (HPC)); 107 % of control (dose: 240.0 mg/kg/injection, schedule: Q01DX005 (ip), vehicle: Klucel (hydroxypropylcellulose) (HPC)).
`CN(C)[C@@H]1C(=O)C(C(=O)NCN2CCCCC2)=C(O)[C@@]2(O)C(=O)C3=C(O)c4c(O)cccc4[C@@](C)(O)[C@H]3C[C@@H]12`: the T/C is 95 % of control under setting [1], 95 % of control under setting [2] and 104 % of control under setting [3].
Regarding `O=C1C=CC(=O)c2c(O)ccc(O)c21`, the T/C was 102 % of control (dose: 0.2 mg/kg/injection, schedule: Q01DX005 (ip), vehicle: saline with Tween-80); 97 % of control (dose: 0.4 mg/kg/injection, schedule: Q01DX005 (ip), vehicle: saline with Tween-80); 98 % of control (dose: 0.8 mg/kg/injection, schedule: Q01DX005 (ip), vehicle: saline with Tween-80); 100 % of control (dose: 1.0 mg/kg/injection, schedule: Q04DX003 (ip), vehicle: saline with Tween-80); 104 % of control (dose: 2.0 mg/kg/injection, schedule: Q04DX003 (ip), vehicle: saline with Tween-80); 100 % of control (dose: 4.0 mg/kg/injection, schedule: Q04DX003 (ip), vehicle: saline with Tween-80).
For the compound `CCOC(=O)NC(=Cc1ccccn1)c1ccc(Cl)cc1` (mixture of isomers), the T/C is 103 % of control (dose: 60.0 mg/kg/injection, schedule: Q01DX005 (ip), vehicle: saline with Tween-80); 97 % of control (dose: 120.0 mg/kg/injection, schedule: Q01DX005 (ip), vehicle: saline with Tween-80); 93 % of control (dose: 240.0 mg/kg/injection, schedule: Q01DX005 (ip), vehicle: saline with Tween-80).
Consider `CC(=O)O/C(C#N)=C1\CCCC\C1=C(\C#N)OC(C)=O`, for which the T/C runs as follows: (dose: 6.25 mg/kg/injection, schedule: Q01DX001 (ip), vehicle: saline with Tween-80) 103 % of control; (dose: 12.5 mg/kg/injection, schedule: Q01DX001 (ip), vehicle: saline with Tween-80) 107 % of control; (dose: 25.0 mg/kg/injection, schedule: Q01DX001 (ip), vehicle: saline with Tween-80) 103 % of control.
With `Cc1ccccc1[B-]12OCC[N+]1(CNC(=O)c1ccccc1O)CCO2` (centres undefined), the T/C was 106 % of control under setting [4]; 105 % of control under setting [5]; 105 % of control (dose: 200.0 mg/kg/injection, schedule: Q01DX005 (ip), vehicle: Klucel (hydroxypropylcellulose) (HPC)).
`C1=CNc2ccccc2N=C1`: the T/C under setting [6] is 103 % of control, the T/C under setting [7] was 112 % of control and the T/C under setting [8] was 99 % of control.
Consider `CNC(=O)Nc1ccc[nH]c1=O`, for which the T/C by setting is: (dose: 25.0 mg/kg/injection, schedule: Q01DX009 (ip), vehicle: Klucel (hydroxypropylcellulose) (HPC)) 103 % of control and 95 % of control; (dose: 25.0 mg/kg/injection, schedule: Q01DX009 (ip), vehicle: saline) 101 % of control; (dose: 50.0 mg/kg/injection, schedule: Q01DX009 (ip), vehicle: Klucel (hydroxypropylcellulose) (HPC)) 90 % of control and 91 % of control; under setting [6], 99 % of control and 97 % of control; (dose: 100.0 mg/kg/injection, schedule: Q01DX009 (ip), vehicle: Klucel (hydroxypropylcellulose) (HPC)) 105 % of control and 96 % of control; under setting [7], 100 % of control and 108 % of control. The T/C (dose: 200.0 mg/kg/injection, schedule: Q01DX009 (ip), vehicle: Klucel (hydroxypropylcellulose) (HPC)) was 101 % of control and 87 % of control; the T/C under setting [8] is 99 % of control; the T/C (dose: 400.0 mg/kg/injection, schedule: Q01DX009 (ip), vehicle: Klucel (hydroxypropylcellulose) (HPC)) was 109 % of control and 96 % of control; the T/C (dose: 400.0 mg/kg/injection, schedule: Q01DX009 (ip), vehicle: saline) is 102 % of control and 109 % of control.
For the compound `Clc1ccc2c(Cl)ncnc2c1`, the T/C under setting [9] was 104 % of control, the T/C under setting [10] was 100 % of control and the T/C under setting [11] was 90 % of control.
Turning to `N/C(=N\O)c1ccc2oc(/C=C/c3cc4cc(/C(N)=N\O)ccc4o3)cc2c1`, the T/C runs as follows: under setting [6], 100 % of control; under setting [7], 97 % of control; under setting [8], 91 % of control.
As for `C=C1C2CCC3C4(C)CCCC(C)(C(=O)O)C4CCC3(C2)C1OC(=O)/C(C)=C/C` (centres undefined), the T/C is 102 % of control (dose: 12.5 mg/kg/injection, schedule: Q01DX005 (ip), vehicle: Klucel (hydroxypropylcellulose) (HPC)); 96 % of control (dose: 25.0 mg/kg/injection, schedule: Q01DX005 (ip), vehicle: Klucel (hydroxypropylcellulose) (HPC)); 90 % of control under setting [4]; 99 % of control under setting [1]; 87 % of control under setting [5]; 95 % of control under setting [2]. Besides, the T/C was 95 % of control under setting [3] and 95 % of control (dose: 400.0 mg/kg/injection, schedule: Q01DX005 (ip), vehicle: saline with Tween-80).
As to `CC1(C)CC(=O)C=C(OCCc2ccccc2)C1`, the T/C by setting is: (dose: 100.0 mg/kg/injection, schedule: Q04DX003 (ip), vehicle: saline with Tween-80) 100 % of control; (dose: 200.0 mg/kg/injection, schedule: Q04DX003 (ip), vehicle: saline with Tween-80) 100 % of control; (dose: 400.0 mg/kg/injection, schedule: Q04DX003 (ip), vehicle: saline with Tween-80) 95 % of control.
`Cc1ccc(S(=O)(=O)Nc2ccc3nc(C)oc3c2)cc1`: the T/C runs as follows: (dose: 100.0 mg/kg/injection, schedule: Q01DX001 (ip), vehicle: saline with Tween-80) 100 % of control; (dose: 200.0 mg/kg/injection, schedule: Q01DX001 (ip), vehicle: saline with Tween-80) 100 % of control; (dose: 400.0 mg/kg/injection, schedule: Q01DX001 (ip), vehicle: saline with Tween-80) 100 % of control.
On to `COc1cccc2c1C(=O)c1c(O)c3c(c(O)c1C2=O)CC(O)(C(=O)CO)CC3OC1CC(N(Cc2ccccc2)Cc2ccccc2)C(O)C(C)O1` (centres undefined), for which the T/C (dose: 0.2 mg/kg/injection, schedule: Q01DX009 (ip), vehicle: water) is 115 % of control; the T/C (dose: 1.56 mg/kg/injection, schedule: Q01DX009 (ip), vehicle: water) is 151 % of control; the T/C (dose: 3.13 mg/kg/injection, schedule: Q01DX009 (ip), vehicle: water) was 156 % of control; the T/C (dose: 6.25 mg/kg/injection, schedule: Q01DX009 (ip), vehicle: water) was 175 % of control.
`CCCN1COC(OCCN(CC)CC)C(C)(C)C1` (centres undefined): the T/C is, setting by setting: under setting [9], 108 % of control; under setting [10], 113 % of control; under setting [11], 107 % of control.
On to `CC(C)CNN(CC(C)C)C(N)=O`, for which the T/C by setting is: under setting [10], 102 % of control; under setting [11], 105 % of control.
As to `COc1cc(C2NC(C(=O)O)CS2)cc(OC)c1OC` (centres undefined), the T/C by setting is: (dose: 50.0 mg/kg/injection, schedule: Q01DX009 (ip), vehicle: suspension in saline) 94 % of control; (dose: 100.0 mg/kg/injection, schedule: Q01DX009 (ip), vehicle: suspension in saline) 97 % of control; (dose: 200.0 mg/kg/injection, schedule: Q01DX009 (ip), vehicle: suspension in saline) 96 % of control.
On to `CCOC(=O)CN=NNc1ccccc1C(=O)CC`, for which the T/C is 98 % of control (dose: 100.0 mg/kg/injection, schedule: Q01DX001 (ip), vehicle: Klucel (hydroxypropylcellulose) (HPC)); 100 % of control (dose: 200.0 mg/kg/injection, schedule: Q01DX001 (ip), vehicle: Klucel (hydroxypropylcellulose) (HPC)); 100 % of control (dose: 400.0 mg/kg/injection, schedule: Q01DX001 (ip), vehicle: Klucel (hydroxypropylcellulose) (HPC)).
